Assay results reported in patent US20240238249A1, “Lipidic Nano-Pharmaceuticals” (Huxley Health Inc., priority 2022, published 2024).

Key:
[1] = 14C mescaline injected into developing rats; especially in adult animals; cited from earlier work
[2] = 14C labelled psilocybin, animals; cited from earlier work

Q: With `COc1cc(CCN)cc(OC)c1OC` [mescaline, 3,4,5-trimethoxyphenethylamine] as the compound, how does the “permeability of the BBB to mescaline” value [1] read?
A: The value was “nearly impermeable”.

Q: With `CN(C)CCc1c[nH]c2cccc(OP(=O)(O)O)c12` [psilocybin] as the compound, how does the “absorption following oral administration” value [2] read?
A: The value was < 50%.

Q: With `CCCCCCCC(=O)Oc1ccc2[nH]cc(CCN(C)C)c2c1` as the compound, how does the melting point read?
A: The melting point was 48.3 to 50.2 °C.
